The subject of one assay is MOLM-13 cells. In words: MOLM-13 subcutaneous xenograft survival experiment. The class given is in vivo. Particulars: ABT-199 alone 100 mg/kg daily by oral gavage for 14 days; MOLM-13 xenograft, SCID mice. Here is the method:
(§1) Tumor growth was monitored throughout the course of the study with bilateral vernier caliper measurements, and mean tumor volumes were calculated using the equation (0.5×[length×width^2]). […] Mice with advanced tumor burden were sacrificed upon reaching tumor volumes of greater than 400 mm^3 or showing symptoms of hind limb paralysis, cranial swelling, and/or moribundity.

For a further assay, the system named is RL cells. In words: RL subcutaneous xenograft survival experiment. The class given is in vivo. Particulars: ABT-199 alone 100 mg/kg daily by oral gavage for 14 days, SCID mice. Here is the method: as §1

As to `CC1(C)CCC(CN2CCN(c3ccc(C(=O)NS(=O)(=O)c4ccc(NCC5CCOCC5)c([N+](=O)[O-])c4)c(Oc4cnc5[nH]ccc5c4)c3)CC2)=C(c2ccc(Cl)cc2)C1` [ABT-199, 2-(1H-pyrrolo[2,3-b]pyridin-5-yloxy)-4-(4-((2-(4-chlorophenyl)-4,4-dimethylcyclohex-1-enyl)methyl)piperazin-1-yl)-N-(3-nitro-4-(((tetrahydro-2H-pyran-4-yl)methyl)amino)phenylsulfonyl)benzamide], the “rate of survival by day 20” value in the assay on MOLM-13 cells came out at 0%. For the same molecule, in the assay with RL cells, the “rate of survival by day 30” value is 0%.

(Values after patent US11027021B2, “Combinations of PBD-based antibody drug conjugates with Bcl-2 inhibitors” (Seagen Inc., priority 2016, dated 2021).)
